The target of assay [1] is Glutamate NMDA receptor; GRIN1/GRIN2A (Homo sapiens, UniProt Q05586+Q12879). Put plainly: Inhibition of human recombinant NR1/NR2A receptor expressed in U2OS assessed as change in intracellular calcium level by FLIPR assay. Details: concentration or dose not given beside the values. It is filed as cell-based. (In general: Calcium assays in cells follow changes in intracellular calcium, usually with a dye or a luminescent sensor.)

Assay [2] deals with Glutamate NMDA receptor; GRIN1/GRIN2B (Homo sapiens, UniProt Q05586+Q13224). Description: Inhibition of human recombinant NR1/NR2B receptor expressed in U2OS assessed as change in intracellular calcium level by FLIPR assay. In kind it is cell-based. More on the design: concentration or dose not given beside the values.

We go through 15 molecules from ChEMBL document CHEMBL1759939, “Novel analogues of ketamine and phencyclidine as NMDA receptor antagonists” (Bioorg Med Chem Lett, 2011).

Regarding `CNC1(c2ccccc2Cl)CCCNC1=O` (stereo not given), in assay [1], the Activity came to 80% and the IC50 – broadly, the concentration that gives 50% inhibition – was 39.8 µM. For the same molecule, in assay [2], the Activity was 80% and the IC50 was above 251 µM.

For `CN1CCC(c2ccccc2)(N2CCCCC2)C1=O` (stereo not given), in assay [1], the Activity was determined as 80% and the IC50 was 50.1 µM. Also, in assay [2], the Activity worked out at 80% and the IC50 was 251 µM.

For the molecule `NC1(c2ccccc2Cl)CCCNC1=O` (stereo not given), in assay [1], the Activity came out at 80% and the IC50 is above 50.1 µM. Further, in assay [2], the Activity is 80% and the IC50 is above 50.1 µM.

For `FC(F)(F)COc1cccc(C2(N3CCCCC3)CCCCC2)c1`, in assay [1], the Activity came to 94% and the IC50 is 5.01 µM. Also, in assay [2], the Activity worked out at 94% and the IC50 was 31.6 µM.

`CNC1(c2ccccc2Cl)CCCN(C)C1=O` (stereo not given): in assay [1], the Activity is 80% and the IC50 is above 251 µM. For the same molecule, in assay [2], the Activity was determined as 80% and the 50% inhibitory concentration (IC50) was above 251 µM.

For the molecule `CCCCOc1ccc(C2(N3CCCCC3)CCCCC2)cc1`, the Activity in assay [1] and in assay [2] was 94% throughout. In addition, the concentration for half-maximal inhibition (IC50) in assay [1] and in assay [2] was above 50.1 µM in each case.

For the molecule `CN1CCCC(c2ccccc2)(N2CCCCC2)C1=O` (stereo not given), in assay [1], the Activity was 80% and the IC50 was 3.16 µM. In assay [2], the Activity is 80% and the IC50 was above 251 µM.

For `CNC1(c2ccc(OC)cc2Cl)CCCCC1=O` (stereo not given), the Activity in assay [1] and in assay [2] was 80% throughout. The IC50 in assay [1] was 10 µM; in assay [2], 20 µM.

With `O=C1NCCCC1(c1ccccc1)N1CCCCC1` (stereo not given), in assay [1], the Activity turned out to be 80% and the IC50 was 25.1 µM. Further, in assay [2], the Activity worked out at 80% and the IC50 was 158 µM.

In the case of `c1ccc(C2(N3CCCCC3)CCCCC2)nc1`, in assay [1], the Activity came out at 94% and the IC50 is 2.51 µM. In assay [2], the Activity came to 94% and the IC50 is 7.94 µM.

Regarding `CNC1(c2ccccc2Cl)CCCCC1=O` (stereo not given) [KETAMINE], the Activity in assay [1] and in assay [2] was above 100% each time. Moreover, the IC50 was 1.26 µM in assay [1] and 5.01 µM in assay [2].

For `c1ccc(C2(N3CCCCC3)CCCCC2)cc1` [PHENCYCLIDINE], in assay [1], the Activity was above 100% and the IC50 is 0.398 µM. Moreover, in assay [2], the Activity was above 100% and the IC50 was 1.26 µM.

As for `COc1ccc(C2(N3CCCCC3)CCCCC2)cc1`, in assay [1], the Activity stood at 94% and the IC50 is 3.98 µM. For the same molecule, in assay [2], the Activity was 94% and the IC50 was 15.8 µM.

As to `CCCCOc1cccc(C2(N3CCCCC3)CCCCC2)c1`, the Activity in assay [1] and in assay [2] was 94% throughout. Also, the results for the IC50 in assay [1] and in assay [2] were 2 µM and 20 µM, respectively.

`O=C1NCCC1(c1ccccc1)N1CCCCC1` (stereo not given): in assay [1], the Activity came out at 80% and the IC50 was 25.1 µM. Besides, in assay [2], the Activity stood at 80% and the IC50 was 63.1 µM.
